The results in this text go back to patent US8765748B2, “Indazolyl, benzimidazolyl, benzotriazolyl substituted indolinone derivatives as kinase inhibitors useful in the treatment of cancer” (University Health Network, priority 2007, dated 2014).

Holding throughout (type): biochemical
One test deals with T1, human PLK4 (Homo sapiens, UniProt O00444).
T1 construct: amino terminal GST fusion of residues 1-391 of human PLK4; made in house; host or cells: E. coli
T1 sequence (O00444 1-391): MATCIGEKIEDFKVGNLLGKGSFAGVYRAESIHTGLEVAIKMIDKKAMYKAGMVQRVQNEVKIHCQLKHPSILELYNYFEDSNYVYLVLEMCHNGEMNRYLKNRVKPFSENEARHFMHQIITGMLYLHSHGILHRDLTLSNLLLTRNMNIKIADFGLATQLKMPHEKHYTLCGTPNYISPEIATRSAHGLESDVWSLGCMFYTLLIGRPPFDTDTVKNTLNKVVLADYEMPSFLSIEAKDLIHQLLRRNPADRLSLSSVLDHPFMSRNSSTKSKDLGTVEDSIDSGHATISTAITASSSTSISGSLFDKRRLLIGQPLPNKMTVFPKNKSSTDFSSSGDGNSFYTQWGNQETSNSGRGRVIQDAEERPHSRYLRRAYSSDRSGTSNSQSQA
The test can be described thus: PLK4 Inhibition Assay (indirect ELISA). Particulars: 15 μM ATP, 4 nM GST-PLK4; read-out: PLK4 IC50 Ranges. On the procedure:
The protein was purified from clarified cell extracts after induction at 15° C. overnight using glutathione sepharose, gel permeation chromatography, and ion exchange (Resource Q). The resulting protein was dephosphorylated with lambda phosphatase (NEB cat #P0753), and resolved from the phosphatase using gluthione sepharose. The dephosphorylated GST-PLK4 was stored in aliquots at −80° C. until use. PLK4 activity was measured using an indirect ELISA detection system. […] Compounds were pre-incubated in the presence of enzyme for 15 minutes prior to addition of ATP and the activity remaining quantified using the above described activity assay. […] The IC50 value was determined using a non-linear 4 point logistic curve fit (XLfit4, IDBS) with the formula; (A+(B/(1+((x/C)^D)))), where A=background value, B=range, C=inflection point, D=curve fit parameter.

In the next test the target is T2, PLK1 (Homo sapiens, UniProt P53350).
T2 construct: purchased Invitrogen PV3501
T2 sequence (P53350 whole entry): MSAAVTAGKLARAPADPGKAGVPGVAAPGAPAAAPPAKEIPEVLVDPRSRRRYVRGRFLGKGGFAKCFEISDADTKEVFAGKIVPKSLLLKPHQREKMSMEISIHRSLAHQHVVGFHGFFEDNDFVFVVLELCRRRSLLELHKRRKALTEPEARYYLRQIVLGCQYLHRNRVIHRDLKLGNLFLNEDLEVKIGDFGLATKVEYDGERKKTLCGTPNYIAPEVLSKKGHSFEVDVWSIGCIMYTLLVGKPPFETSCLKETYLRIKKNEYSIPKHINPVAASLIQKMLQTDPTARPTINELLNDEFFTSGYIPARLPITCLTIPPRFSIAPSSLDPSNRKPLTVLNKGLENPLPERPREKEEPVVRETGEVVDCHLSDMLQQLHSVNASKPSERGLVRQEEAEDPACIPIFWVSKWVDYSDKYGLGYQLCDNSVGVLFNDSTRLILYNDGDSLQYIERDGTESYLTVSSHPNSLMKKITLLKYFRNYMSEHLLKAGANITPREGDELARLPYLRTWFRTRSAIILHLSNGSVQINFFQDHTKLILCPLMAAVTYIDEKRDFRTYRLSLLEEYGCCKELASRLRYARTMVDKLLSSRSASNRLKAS
The experiment in a line: PLK1 Inhibition Assay (Z-Lyte). Particulars: 25 μM ATP, 8 nM PLK1; read-out: PLK1 IC50 Ranges. On the procedure:
PLK1 inhibition was determined using the Z-Lyte assay kit from Invitrogen (cat #PV3802). […] The % inhibition values were determined according to the manufacturer's directions and IC50 values were obtained using a non-linear 4 point logistic curve fit (XLfit4, IDBS)

The target in a further test is T3, Aurora B (Homo sapiens, UniProt Q96GD4).
T3 construct: purchased Invitrogen PV3970
T3 sequence (Q96GD4 whole entry): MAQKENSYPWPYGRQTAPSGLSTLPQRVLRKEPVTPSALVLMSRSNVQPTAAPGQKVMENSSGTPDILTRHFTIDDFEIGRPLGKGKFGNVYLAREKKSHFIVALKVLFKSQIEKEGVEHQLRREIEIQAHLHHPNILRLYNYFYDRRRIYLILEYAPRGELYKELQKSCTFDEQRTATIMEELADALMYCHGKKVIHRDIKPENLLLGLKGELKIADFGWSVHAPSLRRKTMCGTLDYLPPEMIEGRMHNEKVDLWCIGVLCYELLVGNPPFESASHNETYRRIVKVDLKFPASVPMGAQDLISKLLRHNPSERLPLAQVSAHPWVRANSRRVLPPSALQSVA
The experiment in a line: Aurora B Inhibition Assay (Z-Lyte). Conditions: 128 μM ATP, 28 nM Aurora B; read-out: Aurora B IC50 Ranges. On the procedure: Aurora B inhibition was determined using the Z-Lyte assay kit from Invitrogen. The assay was performed using the recommended manufacturer's instructions with 128 μM ATP and 28 nM Aurora B (Invitrogen cat #PV3970). The % inhibition values were determined according to the manufacturer's directions and IC50 values were obtained using a non-linear 4 point logistic curve fit (XLfit4, IDBS)

Another test addresses T4, Aurora A (Homo sapiens, UniProt O14965).
T4 construct: purchased Invitrogen PV3612
T4 sequence (O14965 1-403): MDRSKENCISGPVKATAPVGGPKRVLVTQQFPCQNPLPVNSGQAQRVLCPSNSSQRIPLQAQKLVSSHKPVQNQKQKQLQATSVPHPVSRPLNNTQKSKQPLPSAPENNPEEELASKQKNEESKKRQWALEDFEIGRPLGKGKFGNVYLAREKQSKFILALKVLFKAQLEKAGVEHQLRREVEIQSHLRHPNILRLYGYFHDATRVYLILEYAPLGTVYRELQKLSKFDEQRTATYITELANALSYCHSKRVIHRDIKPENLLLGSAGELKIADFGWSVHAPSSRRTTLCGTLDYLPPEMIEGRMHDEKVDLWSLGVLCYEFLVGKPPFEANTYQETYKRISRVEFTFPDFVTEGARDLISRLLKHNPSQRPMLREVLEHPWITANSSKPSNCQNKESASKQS
The test can be described thus: Aurora A Inhibition Assay (Z-Lyte). Conditions: 20 μM ATP, 12 nM Aurora A; read-out: Aurora A IC50 Ranges. On the procedure:
Aurora A inhibition was determined using the Z-Lyte assay kit from Invitrogen. The assay was performed using the recommended manufacturer's instructions with 20 μM ATP and 12 nM Aurora A (Invitrogen cat #PV3612). The % inhibition values were determined according to the manufacturer's directions and IC50 values were obtained using a non-linear 4 point logistic curve fit (XLfit4, IDBS)

Consider `O=C1Nc2ccc(OC(F)(F)F)cc2/C1=C\c1ccc2nn[nH]c2c1` [Example A14, (E)-3-((1H-benzo[d][1,2,3]triazol-5-yl)methylene)-5-(trifluoromethoxy)indolin-2-one], for which the IC50 – broadly, the concentration that gives 50% inhibition – on human PLK4 was under 5 µM; on PLK1, over 50 µM.

For `CC(=O)Nc1ccc2c(c1)/C(=C\c1ccc3nn[nH]c3c1)C(=O)N2` [Example A23, (E)-N-(3-((1H-benzo[d][1,2,3]triazol-5-yl)methylene)-2-oxoindolin-5-yl)acetamide], the results for the concentration for half-maximal inhibition (IC50) on human PLK4 and at PLK1 were under 5 µM and 5 to 50 µM, respectively.

In the case of `C/C(=C1\C(=O)Nc2ccccc21)c1ccc2cn[nH]c2c1` [Example A51, (E)-3-(1-(1H-indazol-6-yl)ethylidene)indolin-2-one], the IC50 on Aurora B is 5 to 50 µM; at human PLK4, under 5 µM.

`CN1C(=O)/C(=C/c2ccc3nn[nH]c3c2)c2ccccc21` [Example A33, (E)-3-((1H-benzo[d][1.2.3]triazol-5-yl)methylene)-1-methylindolin-2-one]: the IC50 at human PLK4 is 5 to 50 µM; on PLK1, over 50 µM.

For the compound `CNC(=O)c1ccc2c(c1)/C(=C\c1ccc3cn[nH]c3c1)C(=O)N2` [Example A8, (E)-3-((1H-indazol-6-yl)methylene)-N-methyl-2-oxoindoline-5-carboxamide], the IC50 on human PLK4 and on PLK1 was 5 to 50 µM throughout.

Regarding `O=C1Nc2cc(-c3cccnc3)ccc2/C1=C\c1ccc2[nH]ncc2c1` [Example A30, (E)-3-((1H-indazol-5-yl)methylene)-6-(pyridin-3-yl)indolin-2-one], the figures for the IC50 at human PLK4 and on PLK1 were 5 to 50 µM and over 50 µM, respectively.

Turning to `CC(C)(C)OC(=O)Nc1ccc2c(c1)/C(=C\c1ccc3c(/C=C/c4ccncc4)n[nH]c3c1)C(=O)N2` [Example A121, tert-butyl(E)-2-oxo-3-((3-((E)-2-(pyridin-4-yl)vinyl)-1H-indazol-6-yl)methylene)indolin-5-ylcarbamate], the IC50 at Aurora B and on human PLK4 was under 5 µM throughout.

With `Nc1ccc2c(c1)/C(=C\c1ccc3c(/C=C/c4ccncc4)n[nH]c3c1)C(=O)N2` [Example A122, (E)-5-amino-3-((3-((E)-2-(pyridin-4-yl)vinyl)-1H-indazol-6-yl)-methylene)indolin-2-one bis(2,2,2-trifluoroacetate)], the IC50 at Aurora B and on human PLK4 was under 5 µM in each case.

For the compound `CN1C(=O)/C(=C/c2ccc3cn[nH]c3c2)c2ccccc21` [Example A34, (E)-3-((1H-indazol-6-yl)methylene)-1-methylindolin-2-one], the IC50 at human PLK4 and at PLK1 was 5 to 50 µM in each case.

`CN(C)CCCNc1ccc2c(c1)C(=Cc1ccc3c(/C=C/c4ccncc4)n[nH]c3c1)C(=O)N2` (mixture of isomers) [Example A130, (E and Z)-5-(3-(dimethylamino)propylamino)-3-((3-((E)-2-(pyridin-4-yl)-vinyl)-1H-indazol-6-yl)methylene)indolin-2-one]: the IC50 at Aurora B and at human PLK4 was under 5 µM each time.

`CC(C)NC(=O)Nc1ccc2c(c1)/C(=C\c1ccc3nn[nH]c3c1)C(=O)N2` [Example A27, (E)-1-(3-((1H-benzo[d][1,2,3]triazol-5-yl)methylene)-2-oxoindolin-5-yl)-3-isopropylurea]: the IC50 on human PLK4 and at PLK1 was 5 to 50 µM each time.

Regarding `CC(=O)Nc1ccc2c(c1)NC(=O)/C2=C/c1ccc2[nH]ncc2c1` [Example A18], the results for the IC50 at human PLK4 and at PLK1 were under 5 µM and 5 to 50 µM, respectively.

As for `CS(=O)(=O)Nc1ccc2c(c1)/C(=C\c1ccc3nn[nH]c3c1)C(=O)N2` [Example A24, (E)-N-(3-((1H-benzo[d][1,2,3]triazol-5-yl)methylene)-2-oxoindolin-5-yl)methanesulfonamide], the IC50 at human PLK4 is under 5 µM; at PLK1 it was 5 to 50 µM.

For `CN(C)S(=O)(=O)Nc1ccc2c(c1)/C(=C\c1ccc3cn[nH]c3c1)C(=O)N2` [Example A20, N′-[(3E)-3-(1H-indazol-6-ylmethylidene)-2-oxo-2,3-dihydro-1H-indol-5-yl]-N,N-dimethylsulfamide], the IC50 at human PLK4 and at PLK1 was under 5 µM throughout.

As to `CN(C)S(=O)(=O)Nc1ccc2c(c1)/C(=C\c1ccc3nn[nH]c3c1)C(=O)N2` [Example A21, N′-[(3E)-3-(1H-benzotriazol-5-ylmethylidene)-2-oxo-2,3-dihydro-1H-indol-5-yl]-N,N-dimethylsulfamide], the half-maximal inhibitory concentration (IC50) on human PLK4 is under 5 µM; at PLK1, 5 to 50 µM.

Turning to `CC(=O)Nc1ccc2c(c1)NC(=O)/C2=C/c1ccc2nn[nH]c2c1` [Example A17, (E)-N-(3-((1H-benzo[d][1,2,3]triazol-5-yl)methylene)-2-oxoindolin-6-yl)acetamide], the IC50 on human PLK4 and at PLK1 was 5 to 50 µM each time.

As to `O=C1Nc2cc(-c3cccnc3)ccc2/C1=C\c1ccc2[nH]nnc2c1` [Example A29, (E)-3-((1H-benzo[d][1,2,3]triazol-5-yl)methylene)-6-(pyridin-3-yl)indolin-2-one], the IC50 was under 5 µM at human PLK4 and over 50 µM at PLK1.

For `Nc1ccc2c(c1)/C(=C\c1ccc3cn[nH]c3c1)C(=O)N2` [Example A15, (E)-3-((1H-indazol-6-yl)methylene)-2-oxoindolin-5-aminium 2,2,2-trifluoroacetate], the IC50 on human PLK4 was under 5 µM; at PLK1, 5 to 50 µM.

Regarding `COc1ccc2c(c1)C(=Cc1ccc3c(/C=C/c4ccc(CN(C)C)cc4)n[nH]c3c1)C(=O)N2` (stereo in doubt) [Example A136b, (Z)-3-((3-(4-((dimethylamino)methyl)styryl)-1H-indazol-6-yl)-methylene)-5-methoxyindolin-2-one 2,2,2-trifluoroacetate], the IC50 on Aurora A and at Aurora B was under 5 µM throughout.

`COc1ccc2c(c1)/C(=C\c1ccc3c(/C=C/c4cccc[n+]4[O-])n[nH]c3c1)C(=O)N2` [Example A88, 2-((E)-2-(6-((E)-(5-methoxy-2-oxoindolin-3-ylidene)methyl)-1H-indazol-3-yl)vinyl)pyridine 1-oxide]: the IC50 on Aurora B and on human PLK4 was under 5 µM throughout.

For `CC(C)(C)OC(=O)Nc1ccc2c(c1)/C(=C\c1ccc3cn[nH]c3c1)C(=O)N2` [Example A12, (E)-tert-butyl 3-((1H-indazol-6-yl)methylene)-2-oxoindolin-5-ylcarbamate], the IC50 was under 5 µM at human PLK4 and 5 to 50 µM at PLK1.

Turning to `CS(=O)(=O)Nc1ccc2c(c1)/C(=C\c1ccc3cn[nH]c3c1)C(=O)N2` [Example A25, (E)-N-(3-((1H-indazol-6-yl)methylene)-2-oxoindolin-5-yl)methanesulfonamide], the IC50 at human PLK4 and at PLK1 was under 5 µM each time.

Turning to `O=C1Nc2ccccc2C1=Cc1cc(/C=C/c2ccncc2)c2cn[nH]c2c1` (mixture of isomers) [Example A55, (E and Z)-3-((4-((E)-2-(pyridin-4-yl)vinyl)-1H-indazol-6-yl)methylene)indolin-2-one], the IC50 on Aurora B and at human PLK4 was under 5 µM each time.
